The results in this text go back to patent US4496551A (priority 1983, dated 1985).

What all share (assay type): in vivo
Assay [1] concerns Cercospora arachidicola. In words: peanut early leafspot control on peanut seedlings. The conditions noted are these: Mycosphaerella arachidis, 336 h. The method, then: Compounds of the previous examples were again dissolved in acetone in an amount equal to 6% of the final volume and then suspended at a concentration of 100 ppm in purified water containing 250 ppm of the surfactant TREM 014 (polyhydric alcohol esters). This suspension was sprayed to the point of run-off on peanut seedlings. The following day, the plants were inoculated with a spore suspension of Cercospora arachidicola, causal agent of peanut early leafspot, and incubated in a saturated humidity chamber at 27° for 24 hours and then in a growth room for an additional 14 days, when disease ratings were made. Treated plants from successful treatments had few or no leafspots while the untreated plants had numerous leafspots on each leaf.

Assay [2] has as its system Erysiphe cichoracearum. In words: cucumber powdery mildew control on cucumber seedlings. The conditions noted are these: Golovinomyces cichoracearum, 168 h, 7 days. As for the experimental part:
Compounds of the previous examples were again dissolved in acetone in an amount equal to 6% of the final volume and then suspended at a concentration of 100 ppm in purified water containing 250 ppm of the surfactant TREM 014 (polyhydric alcohol esters). This suspension was sprayed to the point of run-off on cucumber seedlings. The following day, the plants were inoculated with a spore suspension of the fungus Erysiphe cichoracearum, causal agent of cucumber powdery mildew, and incubated in a growth room for 7 days. Disease ratings were then made. Treated plants from successful treatments had little or no powdery mildew in contrast to untreated plants which were covered with powdery mildew.

Assay [3] deals with Helminthosporium maydis. Description: southern corn leaf blight control on corn seedlings. The conditions noted are these: Bipolaris maydis, 168 h. The method, then:
Compounds of the previous example were again dissolved in acetone in an amount equal to 6% of the final volume and then suspended at a concentration of 100 ppm in purified water containing 250 ppm of the surfactant TREM 014 (polyhydric alcohol esters). This suspension was sprayed to the point of run-off on corn seedlings. The following day, the plants were inoculated with a spore suspension of Helminthosporium maydis, causal agent of southern corn leaf blight, and incubated in a saturated humidity chamber at 20° for 24 hours and then in a growth room for an additional 7 days, when disease ratings were made. Treated plants from successful treatments had few lesions while the untreated plants had numerous lesions on each leaf.

For assay [4], the system named is Pythium aphanadermatum. In words: Pythium control on coated corn seeds. The note with it: 504 h, 2 gm/kg seed, 49° F. 2 weeks then 70° F. 1 week. As for the experimental part: Several compounds of the previous examples were incorporated into a proprietary formulation and used to coat corn seeds at a rate of 2 gm/kg seed. After being thoroughly coated, the seeds were allowed to air dry at room temperature. The seeds were then planted into soil amended with a mixture of the fungus Pythium aphanadermatum, sand, and corn meal at a rate sufficient to kill most untreated seeds. The seeds were held at 49° F. for 2 weeks and then at 70° F. for 1 additional week. After this time disease ratings were made.

The subject of assay [5] is Puccinia recondita var. tritici. Description: wheat leaf rust control on wheat seedlings. The conditions noted are these: 100 ppm, sprayed day before inoculation. As for the experimental part: (§1) Compounds of this invention were dissolved in acetone in an amount equal to 6% of the final volume and then suspended at a concentration of 100 ppm in purified water containing 250 ppm of the surfactant TREM 014 (polyhydric alcohol esters). This suspension was sprayed to the point of run-off on wheat seedlings. The following day, the plants were inoculated with a spore suspension of Puccinia recondita var. tritici, causal agent of wheat leaf rust, and incubated in a saturated humidity chamber at 20° for 24 hours and then in a growth room for an additional 7 days, when disease ratings were made. Treated plants from successful treatments had few or no rust pustules while the untreated plants had numerous rust pustules on each leaf.

The subject of assay [6] is Rhizoctonia solani. Description: rice sheath blight control on rice seedlings. The conditions noted are these: Rhizoctonia solani, 168 h, 7 days. As for the experimental part: Several compounds of the previous examples were again dissolved in acetone in an amount equal to 6% of the final volume and then suspended at a concentration of 100 ppm in purified water containing 250 ppm of the surfactant TREM 014 (polyhydric alcohol esters). This suspension was sprayed to the point of run-off on rice seedlings. The following day, the plants were inoculated with a mixture of bran and the mycelium of Rhizoctonia solani, causal agent of sheath blight of rice, and incubated in a growth room for 7 days. Disease ratings were then made. Treated plants from successful treatments had little sheath blight in contrast to untreated plants which were covered with sheath blight.

In assay [7] the test system is Pyricularia oryzae. Description: whole plant or invertebrate. The conditions noted are these: 168 h, read-out: % Control of Rice Blast.
Assay [8] concerns Venturia inaequalis. In words: apple scab control on apple seedlings. The note with it: Venturia inaequalis; 100 ppm. As for the experimental part: as §1, with “apple” for “wheat”, “the fungus Venturia inaequalis,” for “Puccinia recondita var. tritici,”, “apple scab,” for “wheat leaf rust,”, “10-12 days.” for “7 days, when disease ratings were made.”, “apple scab lesions when compared to” for “rust pustules while the”, “which were covered with scab lesions.” for “had numerous rust pustules on each leaf.”

Assay [9] relates to Pythium aphanadermatum. In words: Pythium control on coated cotton seeds. The conditions noted are these: 168 h; for pest or weed control at 2000 mg/kg: 2 gm/kg seed, 1 week. From the text: Several compounds of the previous examples were incorporated into a proprietary formulation and used to coat cotton seeds at a rate of 2 gm/kg seed. After being thoroughly coated, the seeds were allowed to air dry at room temperature. The cotton seeds were then planted into soil amended with the fungus Pythium aphanadermatum, sand, and corn meal at a rate sufficient to kill most untreated seeds. The seeds were held at room temperature for 1 week, after which time disease ratings were made.

In assay [10] the test system is Phytophthora infestans. In words: whole plant or invertebrate. The note with it: Phytophthora infestans, in Solanum lycopersicum, 168 h, read-out: % Control of Tomato Late Blight.

Structures are written as SMILES.

As to `C[Si](C)(Cn1ccnc1)c1ccc(Cl)cc1` [(4-Chlorophenyl)dimethyl(1H-imidazol-1-ylmethyl)silane], the pest or weed control at 100 ppm amounted to 0% in assay [1]; 100% in [2]; 0% in [3]; 50% in assay [5]; 0% in [6]; 0% in assay [7]. Also, the pest or weed control at 100 ppm in [8] and in assay [10] was 0% throughout. Moreover, in assay [4], the pest or weed control at 2000 mg/kg was 25%. This compound also gave a pest or weed control at 500 mg/kg in assay [9] (0.5 gm/kg seed) of 18%.
Take `CCCC[Si](C)(Cn1ccnc1)c1ccc(-c2ccccc2)cc1` (centres unmarked) [(1,1'-Biphenyl-4-yl)butyl(1H-imidazol-1-ylmethyl)methylsilane]: the pest or weed control at 100 ppm in assay [1] turned out to be 90%; in [2], 100%; in assay [3] it was 0%; in assay [5], 100%; in assay [6], 90%; in assay [7], 90%. Besides, the pest or weed control at 100 ppm in [8] was 100%; in assay [10], 0%. Also, the pest or weed control at 2000 mg/kg in assay [4] and in assay [9] was 0% each time.
For `CCCC[Si](C)(Cn1ccnc1)c1ccc(F)cc1` (centres unmarked) [Butyl(4-fluorophenyl)(1H-imidazol-1-ylmethyl)methylsilane], the pest or weed control at 100 ppm in [1] is 0%; in assay [2], 100%; in [3], 0%; in [5] it was 0%; in assay [6], 80%; in assay [7] it was 100%. In addition, the pest or weed control at 100 ppm was determined as 80% in assay [8] and 0% in assay [10]. For the same compound, the pest or weed control at 2000 mg/kg in [4] and in [9] was 0% in each case.
With `C[Si](C)(Cn1ccnc1)c1cccc(C(F)(F)F)c1` [Dimethyl(1H-imidazol-1-ylmethyl)(3-trifluoromethylphenyl)silane], the pest or weed control at 100 ppm in [1] came to 50%; in [2], 80%; in assay [3] it was 0%; in assay [5], 0%; in [6], 0%; in [7], 0%. Besides, the pest or weed control at 100 ppm was determined as 0% in [8] and 70% in [10]. Besides, the pest or weed control at 2000 mg/kg in assay [4] and in [9] was 0% throughout.
For `C[Si](Cn1ccnc1)(c1ccccc1)c1ccccc1Cl` (centres unmarked) [(2-Chlorophenyl)(1H-imidazol-1-ylmethyl)methyl(phenyl)silane], the pest or weed control at 100 ppm in assay [1] was determined as 100%; in [2], 100%; in assay [3], 0%; in assay [5], 0%; in assay [6] it was 0%; in assay [7], 0%. The pest or weed control at 100 ppm is 100% in assay [8] and 0% in assay [10].
Take `C[Si](Cn1ccnc1)(c1ccccc1)c1ccc(Cl)cc1Cl` (centres unmarked) [(2,4-Dichlorophenyl)(1H-imidazol-1-ylmethyl)methyl(phenyl)silane]: the pest or weed control at 100 ppm in [1] amounted to 100%; in assay [2] it was 100%; in [3], 0%; in assay [5] it was 90%; in assay [6] it was 0%; in assay [7], 0%. Also, the pest or weed control at 100 ppm in assay [8] turned out to be 80%; in assay [10], 0%.
On to `C[Si](Cn1ccnc1)(c1ccc(Br)cc1)c1ccc(Br)cc1` [[bis(4-Bromophenyl)](1H-imidazol-1-ylmethyl)methylsilane], for which the pest or weed control at 100 ppm in [1] was found to be 50%; in assay [2] it was 100%; in assay [3], 0%; in assay [5], 0%; in [6], 0%; in [7] it was 80%. In addition, the values for the pest or weed control at 100 ppm in assay [8] and in assay [10] were 50% and 0%, respectively.
As for `C[Si](C)(Cn1ccnc1)c1ccccc1Cl` [(2-Chlorophenyl)(1H-imidazol-1-ylmethyl)dimethylsilane], the pest or weed control at 100 ppm in [1] worked out at 80%; in assay [2] it was 100%; in [3] it was 0%; in assay [5], 0%; in [6], 0%; in assay [7] it was 0%. The pest or weed control at 100 ppm turned out to be 90% in assay [8] and 0% in [10]. For the same compound, in [9], the pest or weed control at 2000 mg/kg was determined as 0%.
As to `C[Si](C)(Cn1ccnc1)c1ccccc1-c1ccccc1` [(1,1'-Biphenyl-2-yl)dimethyl(1H-imidazol-1-ylmethyl)silane], the pest or weed control at 100 ppm in assay [1] is 30%; in [2], 50%; in assay [3] it was 0%; in [5], 0%; in assay [6], 90%; in assay [7], 90%. For the same compound, the pest or weed control at 100 ppm came out at 90% in assay [8] and 0% in assay [10].
Consider `C[Si](C)(Cn1ccnc1)c1cccc(Cl)c1` [(3-Chlorophenyl)dimethyl(1H-imidazol-1-ylmethyl)silane], for which the pest or weed control at 100 ppm stood at 0% in [1]; 80% in assay [2]; 0% in [3]; 80% in assay [5]; 90% in [6]; 0% in [7]. For the same compound, the pest or weed control at 100 ppm was 60% in assay [8] and 0% in assay [10].
